Results published in PMC11284788, “NN1213 – A Potent, Long-Acting, and Selective Analog of Human Amylin” (Journal of Medicinal Chemistry, 2024).
Numbered stars: 1 amine (or outer) side, 2 acyl side, 3 side chain; on linkers, the order of the positions; unused ones are H or OH. Bridge positions count the residues as written; N and C are the ends. Side chains are listed from the residue outwards. Peptide text beside a SMILES is read from it. * marks the point of attachment. C20 diacid = O=C(O)CCCCCCCCCCCCCCCCCCC(=O)*; γGlu = O=C(O)[C@H](CCC(=O)[*:2])N[*:1]

Experiments:
hAMY3R [1] = target: T1, hAMY3R (Homo sapiens, UniProt O60896+P30988); assay: scintillation proximity binding assay, hAMY3R membranes; parameters: expressed in transfected cells; host or cells: BHK tk-ts 13, transient co-transfection; membranes for the SPA, whole cells for the species-specific assays; conditions: for ratio hCTR/hAMY3R: ratio of binding IC50 values; for hAMY3R pIC50: SPA binding assay, Tables S13 and S15
T1 sequence (P30988 25-474): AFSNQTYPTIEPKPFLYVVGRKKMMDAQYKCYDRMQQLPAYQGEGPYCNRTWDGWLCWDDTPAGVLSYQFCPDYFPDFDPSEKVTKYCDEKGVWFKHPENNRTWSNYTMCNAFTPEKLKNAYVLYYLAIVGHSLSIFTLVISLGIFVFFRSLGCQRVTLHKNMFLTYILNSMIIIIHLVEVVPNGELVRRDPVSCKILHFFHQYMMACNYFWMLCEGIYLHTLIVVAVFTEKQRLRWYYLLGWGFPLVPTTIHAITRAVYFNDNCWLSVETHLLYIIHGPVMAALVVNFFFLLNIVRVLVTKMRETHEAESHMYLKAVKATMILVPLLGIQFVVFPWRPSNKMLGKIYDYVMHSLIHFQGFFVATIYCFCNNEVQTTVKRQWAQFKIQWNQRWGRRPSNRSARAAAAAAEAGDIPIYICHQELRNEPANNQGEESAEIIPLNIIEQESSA
T1 sequence (O60896 24-148 partner): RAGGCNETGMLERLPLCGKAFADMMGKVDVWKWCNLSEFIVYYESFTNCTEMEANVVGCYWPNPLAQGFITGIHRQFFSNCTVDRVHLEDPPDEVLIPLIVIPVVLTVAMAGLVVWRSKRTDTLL
Procedure: (§1) The apparent binding affinities were determined using a scintillation proximity assay with beads from PerkinElmer and cell membranes containing the AMY3R or CTRs. […] Membranes were harvested and membranes were prepared and kept at −80 °C until use. The assay was performed in a 384-well Optiplate (PerkinElmer). Membranes were mixed with scintillation proximity assay beads in a 1:1 ratio. […] Samples were analyzed on a TopCounter (Packard). The IC50 values were calculated using GraphPad Prism. See Supporting Information S7: SAR Screening Assay Methods (Binding Assays (Human and Rat)) for more information.
(§2) Binding Assays (Human and Rat). Brief descriptions of the methods used to determine binding affinities for SAR analysis are described below. Curves and IC50 values were plotted and calculated in GraphPad Prism using nonlinear regression (one site binding competition analysis), with pIC50 values […]
(§3) values were used to calculate the binding affinity ratios in order to express the selectivity of compounds for the AMY3R versus the CTR.
(§4) CTR Binding Assay. The binding assay was performed using scintillation proximity assay (SPA) beads (RPNQ0001) from PerkinElmer and cell membranes containing either the hCTR or rCTR. BHK […]
(§5) Membranes were prepared in the following way: the cells were rinsed with PBS and incubated with Versene for approximately 5 min before harvesting. The cells were flushed with PBS and the cell-suspension was centrifuged for 5 min at 1000 rpm. Cells were homogenized (Ultra Turrax) in a buffer […]
(§6) containing 20 mM Na-HEPES and 0.1 mM EDTA (pH 7.4, buffer 2). The resulting pellet was re-suspended in buffer 2 and protein concentration was measured (BCA protein assay, Pierce). The homogenate was kept cold during the whole procedure. The membranes were stored at –80 °C until […]
(§7) The binding assay was performed in a 384-well Optiplate (PerkinElmer) in a total volume of 40 μL.
(§8) Membranes were mixed with SPA beads in a 1:1 ratio. […]
(§9) mg/well. Test compounds were dissolved in DMSO and further diluted in assay buffer (50 mM HEPES, pH 7.4, 1 mM CaCl2, 5 mM MgCl2, 0.1% ovalbumin, and 0.02% Tween-20).
(§10) Calcitonin (NEX422 PerkinElmer) was dissolved in assay buffer and added to the Optiplate at a final […]
(§11) prior to centrifugation (1500 rpm, 10 min). Samples were analyzed on TopCounter (Packard).
(§12) AMY3R Binding Assay. The binding assay was performed using SPA beads (RPNQ0001) from PerkinElmer and cell membranes containing either the hAMY3R or rAMY3R. BHK tk-ts 13 cells were […]
as §5, with “and cultured as described above. Membranes” for “Membranes”, “buffer containing 20 mM Na-HEPES and 10 mM EDTA (pH 7.4), and” for “buffer”
(§13) The resulting pellet was re-suspended, homogenized, and
(§14) 7.4, buffer 2). The resulting pellet was re-suspended in buffer 2 and protein concentration was measured (BCA protein assay, Pierce). The homogenate was kept cold during the whole procedure.
(§15) The membranes were stored at –80 °C until use.
(§16) Membranes were mixed with SPA beads in a 1:1 ratio. The final concentration of SPA beads was 0.05 mg/well. Test compounds were dissolved in DMSO and further diluted in assay buffer (50 mM […]
(§17) rAMY (NEX448 PerkinElmer) was dissolved in assay buffer and added to the Optiplate at a final

hAMY3R [2] = target: T1, hAMY3R; assay: cAMP-responsive element luciferase reporter assay, human AMY3R; assay type: cell-based; parameters: expressed in transfected cells; conditions: for ratio hCTR/hAMY3R: ratio of luciferase EC50 values
rAMY3R = target: T2, rAMY3R (Rattus norvegicus, UniProt P32214+Q9JJ73); assay: scintillation proximity binding assay, rAMY3R membranes; parameters: expressed in transfected cells; host or cells: BHK tk-ts 13, transient co-transfection (FuGENE 6); conditions: for ratio rCTR/rAMY3R: ratio of binding IC50 values; for rAMY3R pIC50: SPA binding assay, Tables S13 and S15
T2 sequence (P32214 25-479 isoform P32214-2 limits assumed): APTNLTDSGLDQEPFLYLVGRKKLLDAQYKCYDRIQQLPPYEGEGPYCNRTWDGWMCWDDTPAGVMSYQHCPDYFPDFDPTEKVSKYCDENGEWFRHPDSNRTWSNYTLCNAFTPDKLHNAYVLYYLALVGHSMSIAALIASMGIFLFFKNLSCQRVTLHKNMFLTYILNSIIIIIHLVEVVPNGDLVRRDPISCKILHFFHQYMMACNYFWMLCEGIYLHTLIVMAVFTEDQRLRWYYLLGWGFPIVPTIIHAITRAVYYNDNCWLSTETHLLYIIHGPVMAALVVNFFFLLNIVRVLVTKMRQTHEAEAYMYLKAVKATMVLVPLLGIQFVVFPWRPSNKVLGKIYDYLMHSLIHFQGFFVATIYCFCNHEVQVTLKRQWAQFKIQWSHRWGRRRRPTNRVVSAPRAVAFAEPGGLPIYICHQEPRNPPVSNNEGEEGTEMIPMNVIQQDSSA
T2 sequence (Q9JJ73 23-147 partner): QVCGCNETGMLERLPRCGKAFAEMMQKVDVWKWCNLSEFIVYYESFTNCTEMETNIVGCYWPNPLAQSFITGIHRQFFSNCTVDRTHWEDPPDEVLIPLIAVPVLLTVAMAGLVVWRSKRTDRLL
Procedure: as §1, §2, §3, §4, §5, §6, §7, §8, §9, §10, §11, §12
as §5, with “and cultured as described above. Membranes” for “Membranes”, “buffer containing 20 mM Na-HEPES and 10 mM EDTA (pH 7.4), and” for “buffer”
as §13, §14, §15, §16, §17

SMILES	ratio hCTR/hAMY3R (hAMY3R [1])	ratio hCTR/hAMY3R (hAMY3R [2])	ratio rCTR/rAMY3R (rAMY3R)	hAMY3R pIC50 (hAMY3R [1])	IC50 (hAMY3R [1]; SPA, BHK cell membranes, 125I-rat amylin, 120 min 25 °C, read-out: hAMY3R IC50) [nM]	rAMY3R pIC50 (rAMY3R)	hAMY3R pEC50 (hAMY3R [2]; luciferase (human receptor assay), Tables S12 and S14)	EC50 (hAMY3R [2]; luciferase (human receptor assay), BHK cells stably expressing hCTR+RAMP3 and CRE-luciferase, 3 h, 37 °C, 10% FBS, read-out: hAMY3R EC50) [nM]
CC[C@H](C)[C@H](NC(=O)[C@H](C)NC(=O)CNC(=O)[C@H](Cc1ccccc1)NC(=O)[C@H](CC(N)=O)NC(=O)[C@@H]1CCCN1C(=O)[C@H](CO)NC(=O)[C@H](CO)NC(=O)[C@H](Cc1c[nH]cn1)NC(=O)[C@H](CCCNC(=N)N)NC(=O)[C@H](CC(C)C)NC(=O)[C@H](Cc1ccccc1)NC(=O)[C@H](CC(=O)O)NC(=O)[C@H](C)NC(=O)[C@H](CC(C)C)NC(=O)[C@H](CCCNC(=N)N)NC(=O)[C@H](CCC(N)=O)NC(=O)[C@@H](NC(=O)[C@H](C)NC(=O)[C@@H]1CSSC[C@H](NC(=O)[C@@H](N)CCCCNC(=O)CC[C@H](NC(=O)CC[C@H](NC(=O)CCCCCCCCCCCCCCCCCCC(=O)O)C(=O)O)C(=O)O)C(=O)N[C@@H](CC(N)=O)C(=O)N[C@@H]([C@@H](C)O)C(=O)N[C@@H](C)C(=O)N[C@@H]([C@@H](C)O)C(=O)N1)[C@@H](C)O)C(=O)N1CCC[C@H]1C(=O)N[C@@H](CO)C(=O)N[C@@H](CO)C(=O)N[C@H](C(=O)N[C@@H](CC(N)=O)C(=O)N[C@H](C(=O)NCC(=O)N[C@@H](CO)C(=O)N[C@@H](CC(=O)O)C(=O)N[C@H](C(=O)N[C@@H](Cc1ccc(O)cc1)C(N)=O)[C@@H](C)O)C(C)C)[C@@H](C)O [Peptide 6] (H-K([γGlu-γGlu-C20 diacid])CNTATCATQRLADFLRHSSPNFGAIPSSTNVGSDTY-NH2; disulfide 2-7)	55	15	447					
CC(C)C[C@H](NC(=O)[C@H](CCCNC(=N)N)NC(=O)[C@H](CCC(N)=O)NC(=O)[C@@H](NC(=O)[C@H](C)NC(=O)[C@@H]1CSSC[C@H](NC(=O)[C@@H](N)CCCCNC(=O)CC[C@H](NC(=O)CC[C@H](NC(=O)CCCCCCCCCCCCCCCCCCC(=O)O)C(=O)O)C(=O)O)C(=O)N[C@@H](CC(N)=O)C(=O)N[C@@H]([C@@H](C)O)C(=O)N[C@@H](C)C(=O)N[C@@H]([C@@H](C)O)C(=O)N1)[C@@H](C)O)C(=O)N[C@@H](C)C(=O)N[C@@H](CC(=O)O)C(=O)N[C@@H](Cc1ccccc1)C(=O)N[C@@H](CC(C)C)C(=O)N[C@@H](CCCNC(=N)N)C(=O)N[C@@H](Cc1c[nH]cn1)C(=O)N[C@@H](CO)C(=O)N[C@@H](CO)C(=O)N[C@@H](CC(N)=O)C(=O)N1CCC[C@H]1C(=O)N[C@@H](Cc1ccccc1)C(=O)NCC(=O)N[C@@H](C)C(=O)N1CCC[C@H]1C(=O)N[C@@H](CC(C)C)C(=O)N[C@@H](CO)C(=O)N[C@@H](CO)C(=O)N[C@H](C(=O)N[C@@H](CC(N)=O)C(=O)N[C@H](C(=O)NCC(=O)N[C@@H](CO)C(=O)N[C@@H](CC(=O)O)C(=O)N[C@H](C(=O)N[C@@H](Cc1ccc(O)cc1)C(N)=O)[C@@H](C)O)C(C)C)[C@@H](C)O [Peptide 7] (H-K([γGlu-γGlu-C20 diacid])CNTATCATQRLADFLRHSSNPFGAPLSSTNVGSDTY-NH2; disulfide 2-7)	10	6.9	7.5	8.95	1.12	9.00		
CC[C@H](C)[C@H](NC(=O)[C@H](C)NC(=O)CNC(=O)[C@H](Cc1ccccc1)NC(=O)[C@H](CC(N)=O)NC(=O)[C@@H]1CCCN1C(=O)[C@H](CO)NC(=O)[C@H](CO)NC(=O)[C@H](Cc1c[nH]cn1)NC(=O)[C@H](CCCNC(=N)N)NC(=O)[C@H](CC(C)C)NC(=O)[C@H](Cc1ccccc1)NC(=O)[C@H](CC(N)=O)NC(=O)[C@H](C)NC(=O)[C@H](CC(C)C)NC(=O)[C@H](CCCNC(=N)N)NC(=O)[C@H](CCC(N)=O)NC(=O)[C@@H](NC(=O)[C@H](C)NC(=O)[C@@H]1CSSC[C@H](NC(=O)[C@H](CCCCN)NC(=O)COCCOCCNC(=O)COCCOCCNC(=O)CC[C@H](NC(=O)CCCCCCCCCCCCCCCCCCC(=O)O)C(=O)O)C(=O)N[C@@H](CC(N)=O)C(=O)N[C@@H]([C@@H](C)O)C(=O)N[C@@H](C)C(=O)N[C@@H]([C@@H](C)O)C(=O)N1)[C@@H](C)O)C(=O)N1CCC[C@H]1C(=O)N[C@@H](CO)C(=O)N[C@@H](CO)C(=O)N[C@H](C(=O)N[C@@H](CC(N)=O)C(=O)N[C@H](C(=O)NCC(=O)N[C@@H](CO)C(=O)N[C@@H](CC(N)=O)C(=O)N[C@H](C(=O)N[C@@H](Cc1ccc(O)cc1)C(N)=O)[C@@H](C)O)C(C)C)[C@@H](C)O [Peptide 10]	90	23	116	8.94		8.52	9.36	0.432
